Source: US10449348B2, “Devices and methods for enhancing the topical application of a benefit agent” (Johnson & Johnson Consumer Inc., priority 2015, dated 2019)

Assay: In vitro skin permeation study, Franz diffusion cell, passive diffusion or sonophoresis
Format: in vitro ADME, human
Description: The experimental setup to run sonophoresis (ultrasound) studies with Franz cell diffusion cells consisted of a custom-built universal generator capable of driving ultrasonic transducers in the 20 kHz-2 MHz range with electronic power up to 60 W (Voltage+/−30V, Current: 2 A, duty cycle 50%) with a square waveform. The real power delivered to the transducer depended on the specific experimental conditions and is specified for each experiment. The driving waveform was delivered to the transducer through a coaxial cable having a BNC connector at one end and a custom non-coaxial connector at the transducer end.
The transducer was piezoelectric and had either a disk shaped form (either 20 or 25 mm in diameter) or a rectangular shape 10×20 mm^2). The thickness of the transducer depended on its fundamental frequency being inversely proportional with it. In order to prevent the liquid or the gel from perturbing the electrical connection, each transducer was encapsulated in a plastic case leaving only one side of the transducer exposed to the topical composition. The case was made out of a rigid plastic and the transducers were sealed with silicone adhesive to enable them to oscilalte more or less freely. The case also enabled the electrical connections to be isolated from the topical composition.
For sonophoresis experiments where the ultrasonic wave energy was delivered perpendicular to the skin, disk-shaped transducers were used in the encapsulation setup described above. For the angled ultrasound application the case encapsulating the ultrasonic transducer was assembled in a hinged configuration, enabling angles between 15 and 90 degrees (perpendicular). Note: an angle of 0 degrees would send the ultrasonic wave parallel with the skin surface.
In vitro skin permeation studies on 5% Ibuprofen gel compositions without ultrasound (passive diffusion), or facilitated by the application of ultrasound (sonophoresis), through human cadaver skin were performed as follows:
A skin penetration study evaluated the penetration of ibuprofen through the human skin for the inventive sample prepared as disclosed in Example 1. A commercial ibuprofen gel product, IBULEVE Ibuprofen Gel (by DDD ltd, Watford, Herts, WD18 7JJ, UK) was used as a benchmark, which contains 5% W/W ibuprofen, also IMS (Industrial Methylated Spirits), carbomer, propylene glycol, diethylamine and purified water according to the product label on its package. A well-known Franz diffusion cell method (taught in US20020006418 A1 which is hereby incorporated by reference) was used. […] A magnetic stirrer bar was added in the […]. The liquid receptor was filled with Phosphate-buffered saline (PBS) solution. Air bubbles in the […] were removed. The system was thermostated at 37° C. above a magnetic stirrer to ensure the homogeneity of the liquid receptor during the experiment. A human cadaver skin sample from a commercial tissue bank (Ohio Valley Tissue and Skin Center, Cincinnati, Ohio, dermatomed to approximately 0.4 mm) was cut to fit the glass diffusion cell and the skin was mounted on the Franz cell.
For the diffusion cells designated to be tested for passive diffusion, a test gel sample of 0.2 ml was applied on the skin surface. For the diffusion cells designated to test for sonophoresis, additional test sample (2-5 ml) was added in order to assure the entire, or at least a large portion, of the ultrasonic transducer tip was immersed by the test gel during the ultrasound treatment. The excess gel was promptly removed from the donor cell after the ultrasound treatment so that the remaining test gel was approximately 0.2 ml.
Ultrasound treatments were carried out with the following test conditions: • a) Conventional ultrasound treatment with 90 degree angle (°) between the ultrasound direction and the skin surface; • b) Angled Ultrasound treatment with less than 90 degree angle between the ultrasound direction and the skin surface. […]

Question: With CC(C)Cc1ccc(C(C)C(=O)O)cc1 (stereo not shown) [ibuprofen] as the molecule, how does the permeation enhancement factor (15 degree UT sonophoresis vs without ultrasound, 6th hour) read?
Answer: approximately 3.0 fold

Question: And the permeation enhancement factor (15 degree UT sonophoresis vs without ultrasound, 24th hour)?
Answer: approximately 3.0 fold

Question: And the “ibuprofen permeation through the human skin versus no ultrasound” value (15 degree ultrasound treatment)?
Answer: significantly enhanced

Question: What about the “ibuprofen permeation through the human skin versus no ultrasound” value (45 degree angled sonophoresis) of the same molecule?
Answer: significantly enhanced

Question: And the permeation enhancement factor (60 degree UT sonophoresis vs without ultrasound, 6th hour)?
Answer: approximately 2.9 fold

Question: And the permeation enhancement factor (60 degree UT sonophoresis vs without ultrasound, 24th hour)?
Answer: ~2.0 fold

Question: And the “ibuprofen permeation through the human skin versus no ultrasound” value (60 degree angled sonophoresis)?
Answer: significantly enhanced

Question: And the permeation enhancement factor (90 degree UT sonophoresis vs without ultrasound, 6th hour)?
Answer: approximately 2.3 fold

Question: And the permeation enhancement factor (90 degree UT sonophoresis vs without ultrasound, 24th hour)?
Answer: ~2.0 fold

Question: What about the “ibuprofen permeation through the human skin versus no ultrasound” value (90 degree ultrasound treatment) of the same molecule?
Answer: significantly enhanced
